The record followed here is patent publication US10112929B2, “Lactams as inhibitors of rock” (BRISTOL-MYERS SQUIBB COMPANY, priority 2015, dated 2018).

Each structure is given as a SMILES string. Where a name gives a salt, the structure may show the parent alone.
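Also: rho kinase enzyme reaction halted with EDTA, phospho- and non-phospho peptide separated for read-out, kinase activity inhibition derived across a dose-response series, DMSO under 2%.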

Sequence of ROCK2 (O75116 whole entry, species assumed): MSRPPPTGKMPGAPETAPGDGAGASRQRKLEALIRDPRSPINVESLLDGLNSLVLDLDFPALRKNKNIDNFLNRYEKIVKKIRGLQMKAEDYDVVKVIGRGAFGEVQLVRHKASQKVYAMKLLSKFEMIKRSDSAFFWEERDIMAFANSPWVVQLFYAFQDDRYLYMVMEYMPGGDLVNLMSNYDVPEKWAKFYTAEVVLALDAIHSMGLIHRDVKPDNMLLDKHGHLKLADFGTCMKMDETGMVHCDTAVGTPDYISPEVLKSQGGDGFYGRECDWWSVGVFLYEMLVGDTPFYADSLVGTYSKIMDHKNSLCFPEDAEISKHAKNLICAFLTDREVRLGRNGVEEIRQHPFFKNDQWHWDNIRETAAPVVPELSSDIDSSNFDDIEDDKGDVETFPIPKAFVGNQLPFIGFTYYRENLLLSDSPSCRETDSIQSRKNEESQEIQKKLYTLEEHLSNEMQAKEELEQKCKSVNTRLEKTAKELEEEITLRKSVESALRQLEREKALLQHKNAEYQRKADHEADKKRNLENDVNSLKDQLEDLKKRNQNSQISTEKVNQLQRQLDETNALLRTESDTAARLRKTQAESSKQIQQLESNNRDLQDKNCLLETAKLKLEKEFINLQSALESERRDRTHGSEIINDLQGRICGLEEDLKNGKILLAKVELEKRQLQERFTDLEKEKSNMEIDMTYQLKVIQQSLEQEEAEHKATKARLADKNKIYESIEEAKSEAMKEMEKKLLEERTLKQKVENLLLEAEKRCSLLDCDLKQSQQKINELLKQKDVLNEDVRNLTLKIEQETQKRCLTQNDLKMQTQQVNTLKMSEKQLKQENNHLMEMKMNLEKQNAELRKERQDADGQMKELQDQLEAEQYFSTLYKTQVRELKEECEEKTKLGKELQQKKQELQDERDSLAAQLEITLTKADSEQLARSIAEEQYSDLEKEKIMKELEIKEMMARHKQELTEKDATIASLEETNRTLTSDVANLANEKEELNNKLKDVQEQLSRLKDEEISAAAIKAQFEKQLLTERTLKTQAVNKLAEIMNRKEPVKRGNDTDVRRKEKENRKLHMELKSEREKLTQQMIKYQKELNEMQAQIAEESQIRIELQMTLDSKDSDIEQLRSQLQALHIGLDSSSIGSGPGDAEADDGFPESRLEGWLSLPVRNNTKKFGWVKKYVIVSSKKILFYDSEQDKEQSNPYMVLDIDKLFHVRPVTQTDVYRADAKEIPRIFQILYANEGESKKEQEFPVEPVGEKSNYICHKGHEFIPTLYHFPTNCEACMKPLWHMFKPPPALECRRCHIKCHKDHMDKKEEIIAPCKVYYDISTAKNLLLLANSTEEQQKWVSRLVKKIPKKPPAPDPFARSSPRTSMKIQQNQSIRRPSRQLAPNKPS

The assay concerns the target ROCK2 (Homo sapiens (Human), UniProt O75116). The assay is described as follows: biochemical.
For orientation: IC50 means the midpoint of a concentration-inhibition curve. A low value points to inhibition by little substance. `COc1cc(F)cc(NC2CCN(c3ccc(-c4cn[nH]c4)c(C(F)F)c3)C2=O)c1` (single isomer, unassigned) [Example 177, 1-(3-(difluoromethyl)-4-(1H-pyrazol-4-yl)phenyl)-3-((3-fluoro-5-methoxyphenyl)amino)pyrrolidin-2-one] yielded an IC50 of 100 to 2200 nM.

As for `O=C1C(Nc2nc3ccccc3[nH]2)CCN1c1ccc(-c2cn[nH]c2)cc1` (single isomer, unassigned) [Example 56, 3-((1H-benzo[d]imidazol-2-yl)amino)-1-(4-(1H-pyrazol-4-yl)phenyl)pyrrolidin-2-one], the IC50 fell in the range of 10 to 100 nM.

Compound `COc1c(F)cccc1NC1CCN(c2ccc(-c3cn[nH]c3)cc2)C1=O` (centres unmarked) [Example 1, 1-(4-(1H-Pyrazol-4-yl)phenyl)-3-((3-fluoro-2-methoxyphenyl)amino)pyrrolidin-2-one] came in with an IC50 of less than 10 nM.

Consider `O=C1C(Cc2ccc(F)cc2)CCN1c1ccc(-c2cn[nH]c2)cc1` (centres unmarked) [Example 98, 1-(4-(1H-pyrazol-4-yl)phenyl)-3-(4-fluorobenzyl)pyrrolidin-2-one], for which the IC50 was 100 to 2200 nM.

In turn, `O=C1C(Nc2ccc3c(c2)OC(F)(F)O3)CCN1c1ccc(-c2cn[nH]c2)cc1` (single isomer, unassigned) [Example 53, 1-(4-(1H-pyrazol-4-yl)phenyl)-3-((2,2-difluorobenzo[d][1,3]dioxol-5-yl)amino)pyrrolidin-2-one] came in with an IC50 of 100 to 2200 nM.

`COc1cc(NC2CCN(c3ccc(-c4cn[nH]c4)c(Cl)c3)C2=O)ccc1F` (single isomer, unassigned) [Example 160, 1-(3-chloro-4-(1H-pyrazol-4-yl)phenyl)-3-((4-fluoro-3-methoxyphenyl)amino) pyrrolidin-2-one]: the IC50 is 10 to 100 nM.

As for `COc1cc(F)cc(OC2CCN(c3ccc(-c4cn[nH]c4)c(OC)n3)C2=O)c1` (single isomer, unassigned) [Example 172, 3-(3-fluoro-5-methoxyphenoxy)-1-(6-methoxy-5-(1H-pyrazol-4-yl)pyridin-2-yl)pyrrolidin-2-one], the 50% inhibitory concentration (IC50) lay in the range of 10 to 100 nM.

For `COc1ccc(NC2CCN(c3ccc(-c4cn[nH]c4)cc3)C2=O)c(F)c1` (single isomer, unassigned) [Example 19, 1-(4-(1H-pyrazol-4-yl)phenyl)-3-((2-fluoro-4-methoxyphenyl)amino)pyrrolidin-2-one], the IC50 was in the range of 100 to 2200 nM.

On to `COc1cc(F)ccc1NC1CCN(c2ccc(-c3cn[nH]c3)c(OC)c2)C1=O` (single isomer, unassigned) [Example 143, 3-((4-fluoro-2-methoxyphenyl)amino)-1-(3-methoxy-4-(1H-pyrazol-4-yl)phenyl) pyrrolidin-2-one], for which the IC50 is 100 to 2200 nM.

`O=C1C(c2ccccc2F)CCN1c1ccc(-c2cn[nH]c2)cc1` (centres unmarked) [Example 104, 1-(4-(1H-pyrazol-4-yl)phenyl)-3-(2-fluorophenyl)pyrrolidin-2-one]: the IC50 is 10 to 100 nM.

Consider `COc1cccc(NC2CCN(c3ccc(-c4cn[nH]c4)c(OC)n3)C2=O)c1` (single isomer, unassigned) [Example 196, 1-(6-methoxy-5-(1H-pyrazol-4-yl)pyridin-2-yl)-3-((3-methoxyphenyl)amino) pyrrolidin-2-one], for which the IC50 is less than 10 nM.

The compound `Nc1cccc(OC2CCN(c3ccc(-c4cn[nH]c4)cc3)C2=O)c1` (centres unmarked) [Example 113, 1-(4-(1H-pyrazol-4-yl)phenyl)-3-(3-aminophenoxy)pyrrolidin-2-one, TFA] came in with an IC50 of 10 to 100 nM.

In turn, `COc1c(F)cccc1NC1CCN(c2ccc(-c3cn[nH]c3)cc2)C1=O` (single isomer, unassigned) [Example 16, 1-(4-(1H-pyrazol-4-yl)phenyl)-3-((3-fluoro-2-methoxyphenyl)amino)pyrrolidin-2-one] registered an IC50 of 100 to 2200 nM.

`O=C1[C@H](N2CCc3ccccc32)CCN1c1ccc(-c2cn[nH]c2)cc1` [Example 393, (R)-1-(4-(1H-pyrazol-4-yl)phenyl)-3-(indolin-1-yl)pyrrolidin-2-one] gave an IC50 of 10 to 100 nM.

In the case of `COc1cccc(NC2CCN(c3ccc(-c4cn[nH]c4)cn3)C2=O)c1` (single isomer, unassigned) [Example 85, 1-(5-(1H-pyrazol-4-yl)pyridin-2-yl)-3-((3-methoxyphenyl)amino)pyrrolidin-2-one], the IC50 is less than 10 nM.

Compound `COc1cc(N2CCC(Nc3cccc(OC(F)F)c3)C2=O)ccc1-c1cn[nH]c1` (centres unmarked) [Example 66, 3-((3-(Difluoromethoxy)phenyl)amino)-1-(3-methoxy-4-(1H-pyrazol-4-yl)phenyl)pyrrolidin-2-one] registered an IC50 of less than 10 nM.

`COc1cc(NC2CCN(c3ccc(-c4cn[nH]c4)c(C(F)F)c3)C2=O)ccc1F` (single isomer, unassigned) [Example 179, 1-(3-(difluoromethyl)-4-(1H-pyrazol-4-yl)phenyl)-3-((4-fluoro-3-methoxyphenyl)amino)pyrrolidin-2-one] yielded an IC50 of 10 to 100 nM.

As for `COc1cc(F)cc(NC2CCN(c3ccc(-c4cn[nH]c4)c(OC)c3)C2=O)c1` (single isomer, unassigned) [Example 137, 3-((3-fluoro-5-methoxyphenyl)amino)-1-(3-methoxy-4-(1H-pyrazol-4-yl)phenyl) pyrrolidin-2-one], the IC50 was less than 10 nM.

In the case of `O=C1C(Nc2cccc(OC(F)F)c2)CCN1c1ccc(-c2cn[nH]c2)cc1` (single isomer, unassigned) [Example 231, 1-(4-(1H-pyrazol-4-yl)phenyl)-3-((3-(difluoromethoxy)phenyl)amino) pyrrolidin-2-one], the IC50 lay within 10 to 100 nM.

`COc1cccc(OC2CCN(c3ccc(-c4cn[nH]c4)cc3)C2=O)c1` (centres unmarked) [Example 108, 1-(4-(1H-Pyrazol-4-yl)phenyl)-3-(3-methoxyphenoxy)pyrrolidin-2-one, TFA] came in with an IC50 of 10 to 100 nM.

Compound `COc1cc(F)cc(OC2CCN(c3ccc(-c4cn[nH]c4)c(OC)n3)C2=O)c1` (single isomer, unassigned) [Example 173, 3-(3-fluoro-5-methoxyphenoxy)-1-(6-methoxy-5-(1H-pyrazol-4-yl)pyridin-2-yl)pyrrolidin-2-one] yielded an IC50 of less than 10 nM.

As for `O=C1C(Nc2cccc(OC(F)F)c2)CCN1c1ccc(-c2cn[nH]c2)cc1` (single isomer, unassigned) [Example 232, 1-(4-(1H-pyrazol-4-yl)phenyl)-3-((3-(difluoromethoxy)phenyl)amino) pyrrolidin-2-one], the IC50 was less than 10 nM.

`CC(C)Oc1cccc(NC2CCN(c3ccc(-c4cn[nH]c4)cc3)C2=O)c1` (centres unmarked) [Example 10, 1-(4-(1H-pyrazol-4-yl)phenyl)-3-((3-isopropoxyphenyl)amino)pyrrolidin-2-one] displayed an IC50 of 10 to 100 nM.

For `COc1cc(F)cc(NC2CCN(c3ccc(-c4cn[nH]c4)c(C#N)c3)C2=O)c1` (single isomer, unassigned) [Example 374, 5-(3-((3-fluoro-5-methoxyphenyl)amino)-2-oxopyrrolidin-1-yl)-2-(1H-pyrazol-4-yl)benzonitrile], the IC50 was 100 to 2200 nM.

The compound `COc1nc(N2CCC(Nc3cc(C)n(C)n3)C2=O)ccc1-c1cn[nH]c1` (racemic) [Example 271, 3-((1,5-dimethyl-1H-pyrazol-3-yl)amino)-1-(6-methoxy-5-(1H-pyrazol-4-yl)pyridin-2-yl)pyrrolidin-2-one] registered an IC50 of 100 to 2200 nM.

Turning to `COc1nc(N2CCC(N3CCC(F)(F)CC3)C2=O)ccc1-c1cn[nH]c1` (racemic) [Example 282, 3-(4,4-difluoropiperidin-1-yl)-1-(6-methoxy-5-(1H-pyrazol-4-yl)pyridin-2-yl)pyrrolidin-2-one hydrochloride], the IC50 fell in the range of 10 to 100 nM.

With `COc1cccc(NC2CCN(c3ccc(-c4cn[nH]c4)c(C4CC4)c3)C2=O)c1` (single isomer, unassigned) [Example 363, 1-(3-cyclopropyl-4-(1H-pyrazol-4-yl)phenyl)-3-((3-methoxyphenyl)amino) pyrrolidin-2-one], the IC50 was 10 to 100 nM.

On to `COc1nc(N2CCC(N(C)C3CCN(C)CC3)C2=O)ccc1-c1cn[nH]c1` (racemic) [Example 279, 1-(6-methoxy-5-(1H-pyrazol-4-yl)pyridin-2-yl)-3-(methyl(1-methylpiperidin-4-yl)amino)pyrrolidin-2-one], for which the IC50 was 100 to 2200 nM.

The compound `O=C1C(Oc2ccccc2)CCN1c1ccc(-c2cn[nH]c2)cc1` (centres unmarked) [Example 64, 1-(4-(1H-pyrazol-4-yl)phenyl)-3-phenoxypyrrolidin-2-one] returned an IC50 of 10 to 100 nM.

For the compound `COCc1cc(N2CCC(Nc3cc(F)cc(OC)c3)C2=O)ccc1-c1cn[nH]c1` (single isomer, unassigned) [Example 185, 3-((3-fluoro-5-methoxyphenyl)amino)-1-(3-(methoxymethyl)-4-(1H-pyrazol-4-yl)phenyl)pyrrolidin-2-one], the IC50 lay in the range of 100 to 2200 nM.

Turning to `COc1cc(NC2CCN(c3ccc(-c4cn[nH]c4)c(OCCN(C)C)c3)C2=O)ccc1F` (racemic) [Example 346, 1-(3-(2-(dimethylamino)ethoxy)-4-(1H-pyrazol-4-yl)phenyl)-3-((4-fluoro-3-methoxyphenyl)amino)pyrrolidin-2-one], the IC50 lay within 100 to 2200 nM.

`COCc1cc(N2CCC(Nc3cccc(OC)c3)C2=O)ccc1-c1cn[nH]c1` (single isomer, unassigned) [Example 183, 1-(3-(methoxymethyl)-4-(1H-pyrazol-4-yl)phenyl)-3-((3-methoxyphenyl)amino) pyrrolidin-2-one] displayed a half-maximal inhibitory concentration (IC50) of 100 to 2200 nM.

Turning to `CCc1cc(N2CCC(Nc3cccc(OC)c3)C2=O)ccc1-c1cn[nH]c1` (single isomer, unassigned) [Example 244, 1-(3-ethyl-4-(1H-pyrazol-4-yl)phenyl)-3-((3-methoxyphenyl)amino)pyrrolidin-2-one], the IC50 was less than 10 nM.

`COc1ccc(F)c(NC2CCN(c3ccc(-c4cn[nH]c4)c(C(F)(F)F)c3)C2=O)c1` (single isomer, unassigned) [Example 373, 1-(4-(1H-pyrazol-4-yl)-3-(trifluoromethyl)phenyl)-3-((2-fluoro-5-methoxyphenyl)amino)pyrrolidin-2-one] registered an IC50 of 100 to 2200 nM.

Turning to `COc1ccc(F)c(NC2CCN(c3ccc(-c4cn[nH]c4)c(C)c3)C2=O)c1` (single isomer, unassigned) [Example 364, 3-((2-fluoro-5-methoxyphenyl)amino)-1-(3-methyl-4-(1H-pyrazol-4-yl)phenyl) pyrrolidin-2-one], the IC50 is 10 to 100 nM.
